Like-named read-outs stand apart in the source and are kept apart here.
Columns and labels:
wild type (WT) pfDHFR = wild type (WT) pfDHFR (Plasmodium falciparum, UniProt P13922, N108S/R59C); test: Inhibition of wild type pfDHFR (Ki); type: biochemical
Experimental: (§1) The synthesized 2,4-diamino-6-ethylpyrimdine derivatives as the hydrochloride salts were tested for the activities against Plasmodium falciparum (P. falciparum) according to the standard methods. These include the inhibition of dihydrofolate reductase (DHFR) enzymes of P. falciparum including, wild type (WT) and quadruple mutants (N51IC59RS108NI164L) (QM). The inhibition was expressed as inhibition constants (Ki) in nano molar (nM).

in vitro = conditions: African green monkey
From the text: (§2) In Vitro Antimalarial Activites Against P. falciparum and Cytotoxicity Towards Mammalian Cells (Vero Cells)

[1] = biological target: T1, Human dihydrofolate reductase (hDHFR) (Homo sapiens, UniProt P00374); test: Inhibition of human dihydrofolate reductase (Ki); type: biochemical; conditions: human DHFR; hydrochloride salts
T1 sequence (P00374 1-187): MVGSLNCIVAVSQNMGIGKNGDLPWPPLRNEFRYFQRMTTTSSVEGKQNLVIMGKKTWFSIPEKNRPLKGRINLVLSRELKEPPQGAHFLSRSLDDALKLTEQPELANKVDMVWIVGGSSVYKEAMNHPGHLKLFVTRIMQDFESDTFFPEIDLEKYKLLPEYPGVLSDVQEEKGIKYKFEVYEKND

[2] = tested on: P. falciparum V1/S (N51I + C59R + S108 + I164L); test: microbe, parasite or virus in culture; type: cell-based, Plasmodium falciparum; conditions: Plasmodium falciparum, read-out: IC50 P. falciparum V1/S
From the text: as §2

[3] = tested on: P. falciparum TM4/8.2 (wild type); test: microbe, parasite or virus in culture; type: cell-based, Plasmodium falciparum; conditions: Plasmodium falciparum, read-out: IC50 P. falciparum TM4/8.2 (WT)
From the text: as §2

[4] = biological target: quadruple mutant N51I + C59R + S108N + I164L (QM) pfDHFR (Plasmodium falciparum, UniProt P13922, I164L/N51I); test: Inhibition of quadruple mutant pfDHFR (Ki); type: biochemical
Experimental: as §1

[5] = in vitro, quadruple mutant strain V1/S
[6] = in vitro, wild-type strain TM4/8.2

quadruple mutant N51I + C59R + S108N + I164L (QM) pfDHFR, sequence (P13922 whole entry N51I/I164L): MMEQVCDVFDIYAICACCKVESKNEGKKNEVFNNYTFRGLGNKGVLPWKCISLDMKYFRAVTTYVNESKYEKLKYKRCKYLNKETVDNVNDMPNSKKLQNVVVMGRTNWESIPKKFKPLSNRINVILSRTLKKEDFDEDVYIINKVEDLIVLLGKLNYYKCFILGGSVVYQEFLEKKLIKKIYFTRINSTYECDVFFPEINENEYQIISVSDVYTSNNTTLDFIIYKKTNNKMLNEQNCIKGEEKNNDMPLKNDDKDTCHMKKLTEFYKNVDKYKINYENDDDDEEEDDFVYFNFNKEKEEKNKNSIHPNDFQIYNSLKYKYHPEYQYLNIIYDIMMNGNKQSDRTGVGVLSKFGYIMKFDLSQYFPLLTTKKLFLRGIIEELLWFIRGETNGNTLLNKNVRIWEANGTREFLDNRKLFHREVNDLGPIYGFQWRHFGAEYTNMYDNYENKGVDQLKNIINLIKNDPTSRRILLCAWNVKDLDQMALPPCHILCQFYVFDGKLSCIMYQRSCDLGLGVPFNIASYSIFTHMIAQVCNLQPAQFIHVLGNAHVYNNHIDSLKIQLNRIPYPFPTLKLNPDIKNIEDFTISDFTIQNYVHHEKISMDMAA
wild type (WT) pfDHFR, sequence (P13922 whole entry R59C/N108S): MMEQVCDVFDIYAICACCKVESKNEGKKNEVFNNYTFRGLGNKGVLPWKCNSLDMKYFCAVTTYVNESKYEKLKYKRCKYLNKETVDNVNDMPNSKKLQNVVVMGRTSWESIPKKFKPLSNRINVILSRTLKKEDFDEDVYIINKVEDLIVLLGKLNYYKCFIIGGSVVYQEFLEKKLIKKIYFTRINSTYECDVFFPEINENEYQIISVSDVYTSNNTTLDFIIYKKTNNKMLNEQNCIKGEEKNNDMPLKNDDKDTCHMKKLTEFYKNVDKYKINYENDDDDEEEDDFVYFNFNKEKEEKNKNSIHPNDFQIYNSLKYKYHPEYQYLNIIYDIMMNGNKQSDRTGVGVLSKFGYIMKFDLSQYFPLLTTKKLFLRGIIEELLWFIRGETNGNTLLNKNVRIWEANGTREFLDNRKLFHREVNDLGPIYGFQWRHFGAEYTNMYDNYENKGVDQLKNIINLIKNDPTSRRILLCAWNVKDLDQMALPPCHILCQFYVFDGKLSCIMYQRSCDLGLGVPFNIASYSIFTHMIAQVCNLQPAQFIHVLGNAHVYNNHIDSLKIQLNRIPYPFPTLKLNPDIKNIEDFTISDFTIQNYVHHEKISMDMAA

| Structure (SMILES) | Ki (wild type (WT) pfDHFR) | IC50 (in vitro) | Ki [1] | IC50 [2, 5] | IC50 [3, 6] | Ki [4] | Ki hDHFR [1] | IC50 [2] | IC50 [3] |
| --- | --- | --- | --- | --- | --- | --- | --- | --- | --- |
| CCc1nc(N)nc(N)c1OCc1cc(-c2ccc(C(=O)O)cc2)no1 [Compound 44] | 3.75 ± 0.31 nM | > 10 µM | > 100000 nM | > 10 µM | 7770 ± 1470 nM | 245 ± 34.6 nM |  |  |  |
| CCc1nc(N)nc(N)c1OCc1csc(-c2ccc(Cl)cc2)n1 [Compound 70] | 0.74 ± 0.09 nM | 63.5 ± 17.6 µM | 286 ± 47.1 nM | 24.3 ± 9.37 µM | 1180 ± 30 nM | 30.2 ± 1.59 nM |  |  |  |
| CCc1nc(N)nc(N)c1OCc1cn(-c2ccc([N+](=O)[O-])cc2)nn1 [Compound 17] | 42.7 ± 0.99 nM | > 50 µM | > 500000 nM | 14.9 ± 3.82 µM | 4250 ± 1370 nM | 1990 ± 318 nM |  |  |  |
| CCc1nc(N)nc(N)c1OCc1csc(-c2ccc(OCC(=O)OCc3ccccc3)cc2)n1 [Compound 72] | 0.8 ± 0.09 nM | > 50 µM | 140 ± 22 nM | > 50 µM | 230 ± 30 nM | 30.3 ± 5.63 nM |  |  |  |
| CCc1nc(N)nc(N)c1OCCc1cn(-c2cccc(C(=O)O)c2)nn1 [Compound 20] | 0.39 ± 0.06 nM | > 25 µM | 80.2 ± 3.28 nM | 1.74 ± 0.51 µM | 670 ± 340 nM | 1.73 ± 0.18 nM |  |  |  |
| CCc1nc(N)nc(N)c1OCc1coc(-c2cccc(C)c2)n1 [Compound 51] | 0.44 ± 0.05 nM | 75.9 ± 11 µM | 256 ± 9.25 nM | 21.9 ± 5.88 µM | 830 ± 50 nM | 48 ± 1.54 nM |  |  |  |
| CCc1nc(N)nc(N)c1-c1cn(CCOc2ccc(C(=O)OC)cc2)nn1 [Compound 10] | 1.01 ± 0.04 nM | 38.9 ± 2.14 µM |  | 21 ± 4.49 µM | 880 ± 360 nM | 6.96 ± 1.12 nM | High |  |  |
| CCc1nc(N)nc(N)c1OCc1csc(-c2cccc(OCC(=O)O)c2)n1 [Compound 64] | 0.6 ± 0.04 nM | > 50 µM | 184 ± 21.4 nM | > 50 µM | 550 ± 120 nM | 41.3 ± 7.41 nM |  |  |  |
| CCc1nc(N)nc(N)c1OCCc1csc(-c2ccccc2)n1 [Compound 76] | 0.94 ± 0.16 nM | 1.33 ± 0.46 µM | 21 ± 1.24 nM | 17.8 ± 6.8 µM | 11 ± 2 nM | 7.28 ± 0.69 nM |  |  |  |
| CCc1nc(N)nc(N)c1OCc1csc(-c2ccc(C)cc2)n1 [Compound 67] | 0.81 ± 0.05 nM | 28.9 ± 5.74 µM | > 100000 nM | 19 ± 6.7 µM | 1020 ± 530 nM | 27.3 ± 1.45 nM |  |  |  |
| CCc1nc(N)nc(N)c1OCc1cn(Cc2cccc(C(=O)O)c2)nn1 [Compound 26] | 19.5 ± 1.06 nM | > 25 µM |  | > 25 µM | > 25000 nM | 388 ± 26.2 nM | High |  |  |
| CCc1nc(N)nc(N)c1-c1cn(CCCOc2ccc(C(=O)OC)cc2)nn1 [Compound 12] | 0.82 ± 0.06 nM | 47.6 ± 6.27 µM | 875 ± 27.9 nM |  |  | 34 ± 5.51 nM |  | > 50 µM | 970 ± 400 nM |
| CCc1nc(N)nc(N)c1OCCCc1cn(Cc2ccc(C(=O)O)cc2)nn1 [Compound 32] | 0.36 ± 0.02 nM | > 50 µM | 54.3 ± 1.05 nM | 3.75 ± 0.43 µM | 87 ± 30 nM | 4.72 ± 0.77 nM |  |  |  |
| CCc1nc(N)nc(N)c1OCc1cc(-c2ccccc2)no1 [Compound 33] | 0.51 ± 0.08 nM | > 25 µM | 1480 ± 68.9 nM | 15.7 ± 4.48 µM | 670 ± 130 nM | 38.1 ± 6.27 nM |  |  |  |
| CCc1nc(N)nc(N)c1OCc1cc(-c2ccc(F)cc2)no1 [Compound 34] | 1.01 ± 0.05 nM | > 25 µM | 1080 ± 93.7 nM |  |  | 77.6 ± 14.8 nM |  | 18.9 ± 4.44 µM | 1600 ± 790 nM |
| CCc1nc(N)nc(N)c1OCCc1coc(-c2ccccc2)n1 [Compound 58] | 0.55 ± 0.02 nM | 5.59 ± 1.84 µM | 20.4 ± 2.1 nM |  |  | 4.63 ± 0.22 nM |  | 53.1 ± 15.2 µM | 48 ± 21 nM |
| CCc1nc(N)nc(N)c1OCCCc1cn(-c2ccc(C(=O)O)cc2)nn1 [Compound 25] | 0.35 ± 0.04 nM | 6.4 ± 1.08 µM | 44.8 ± 1.92 nM |  |  | 3.52 ± 0.73 nM |  | 4.65 ± 0.12 µM | 36 ± 10 nM |
| CCc1nc(N)nc(N)c1-c1cn(Cc2ccc(C(=O)O)cc2)nn1 [Compound 5] | 6.31 ± 0.4 nM | > 10 µM | 196 ± 20.7 nM | > 10 µM | 7950 ± 1380 nM | 7.61 ± 0.66 nM |  |  |  |
| CCc1nc(N)nc(N)c1OCc1coc(-c2cccc([N+](=O)[O-])c2)n1 [Compound 52] | 2.63 ± 0.26 nM | > 50 µM | > 100000 nM | 15.1 ± 1.49 µM | 2660 ± 310 nM | 93.2 ± 25 nM |  |  |  |
| CCc1nc(N)nc(N)c1OCCCc1cc(-c2ccc(Cl)cc2)no1 [Compound 45] | 1.99 ± 0.43 nM | > 50 µM | 37 ± 5.36 nM | 6.37 ± 1.97 µM | 270 ± 80 nM | 3.9 ± 0.68 nM |  |  |  |
| CCc1nc(N)nc(N)c1OCc1cc(-c2ccc(Cl)cc2)no1 [Compound 35] | 0.95 ± 0.02 nM | > 25 µM | 1170 ± 130 nM |  |  | 65 ± 11.9 nM |  | 20.9 ± 4.08 µM | 2500 ± 340 nM |
| CCc1nc(N)nc(N)c1OCc1csc(-c2ccc(F)cc2)n1 [Compound 69] | 0.9 ± 0.18 nM | > 25 µM | 318 ± 29.7 nM | > 25 µM | 790 ± 380 nM | 45.6 ± 4.68 nM |  |  |  |
| CCc1nc(N)nc(N)c1OCc1csc(-c2ccc(OC)cc2)n1 [Compound 68] | 0.46 ± 0.06 nM | 43.5 ± 13.4 µM | 186 ± 4.66 nM |  |  | 16 ± 1.27 nM |  | 12.9 ± 5.71 µM | 450 ± 90 nM |
| CCc1nc(N)nc(N)c1OCc1cn(-c2ccc(C(=O)O)cc2)nn1 [Compound 19] | 7.79 ± 1.33 nM | > 10 µM |  | > 10 µM | > 10000 nM | 671 ± 27.2 nM | High |  |  |
| CCc1nc(N)nc(N)c1OCCCc1cn(-c2ccc(C(=O)OC)cc2)nn1 [Compound 24] | 0.15 ± 0.02 nM | > 2 µM | 19 ± 1.92 nM |  |  | 1.9 ± 0.08 nM |  | > 2 µM | 55 ± 6 nM |
| CCc1nc(N)nc(N)c1OCc1coc(-c2cccc(OCC(=O)O)c2)n1 [Compound 54] | 1.19 ± 0.15 nM | > 50 µM | 540 ± 25.2 nM | > 50 µM | 3820 ± 210 nM | 261 ± 19 nM |  |  |  |
| CCc1nc(N)nc(N)c1-c1cn(-c2ccccc2)nn1 [Compound 1] | 49.7 ± 4.18 nM | > 50 µM |  | > 50 µM | > 50000 nM | 6020 ± 772 nM | High |  |  |
| CCc1nc(N)nc(N)c1OCc1coc(-c2ccc(OCC(=O)O)cc2)n1 [Compound 57] | 0.84 ± 0.08 nM | > 50 µM | 716 ± 78.3 nM | > 50 µM | 730 ± 170 nM | 78 ± 6.44 nM |  |  |  |

— patent publication US11028072B2, “2,4-diamino-6-ethylpyrimidine derivatives with antimalarial activities against Plasmodium falciparum” (National Science and Technology Development Agency, priority 2015, dated 2021)
